≈ marks a conversion by molar mass, not a printed value. Read-outs that look alike come from different tables or passages of the source.
How the values were obtained:
[1] = Stability (physicochemical properties, Table 5); details: light, acid, alkali, silica gel
[2] = Solubility in solvents (physicochemical properties, Table 5); details: for Solubility (1) Soluble: solvents in which the substance is soluble; for Solubility (2) Sparingly soluble: solvents in which the substance is sparingly soluble
[3] = tested on: Adriamycin-sensitive P388 leukemia cells (P388/S); assay: Growth inhibition of cultured Adriamycin-sensitive P388 leukemia cells; type: cell-based; details: Mus musculus, read-out: IC50 (μg/ml) P388/S
Description: The substance MH190 of the present invention are capable of inhibiting the growth of cultured Adriamycin-sensitive P388 leukemia cells (P388/S) and Adriamycin-resistant P388 leukemia cells (P388/ADR) in very low concentrations.

[4] = tested on: Adriamycin-resistant P388 leukemia cells (P388/ADR); assay: Growth inhibition of cultured Adriamycin-resistant (multi-drug resistant) P388 leukemia cells; type: cell-based; details: for IC50: Mus musculus, read-out: IC50 (μg/ml) P388/ADR; for Ratio (P388/ADR to P388/S): ratio of IC50 P388/ADR to IC50 P388/S
L1210 leukemia cells = assay: Anti-tumor activity against intraperitoneally transplanted L1210 leukemia in mice (life prolongation); type: in vivo, CDF1 mice; details: for Percentage life prolongation: intraperitoneal for 10 days, survival of saline control taken as 100
Experimental: L1210 leukemia cells (1 x 10^5 per animal) were transplanted intraperitoneally into CDF1 mice. Immediately after the transplantation, a solution of MH190 Y2 was injected intraperitoneally for 10 days in a dose of […]. The percentage life prolongation of each of the treated mice was checked and the results are shown below, with the number of days of survival of control mice to which physiological saline had been administered being taken as 100.

[5] = Acute toxicity (LD50), single intraperitoneal injection; details: mouse, in vivo, ip; single intraperitoneal injection into mice

| Structure (SMILES) | Stability [1] | Solubility (1) Soluble [2] | Solubility (2) Sparingly soluble [2] | IC50 ([3]; P388/S) [µg/mL] | IC50 ([4]; P388/ADR) [µg/mL] | Ratio (P388/ADR to P388/S) [4] | Percentage life prolongation (L1210 leukemia cells; dose 0.156 mg/Kg/dat) | Percentage life prolongation (L1210 leukemia cells; dose 0.313 mg/Kg/dat) | Percentage life prolongation (L1210 leukemia cells; dose 0.625 mg/Kg/dat) | Percentage life prolongation (L1210 leukemia cells; dose 1.25 mg/Kg/dat) | Percentage life prolongation (L1210 leukemia cells; dose 2.5 mg/Kg/dat) | Percentage life prolongation (L1210 leukemia cells; dose 5 mg/Kg/dat) | anti-tumor activities (L1210 leukemia cells; doses ranging from 0.313 to 5 mg/kg/day) | LD50 [5] [mg/kg] | IC50 ([4]; cultured P388/ADR cells) [µg/mL] | IC50 ([3]; cultured P388/S cells) [µg/mL] |
| --- | --- | --- | --- | --- | --- | --- | --- | --- | --- | --- | --- | --- | --- | --- | --- | --- |
| CC1OC(OC2CCC(OC3(C)CC(=O)C4(O)C5=C(C=CC4(O)C3)C(=O)c3c(ccc(C4CC6OC7CC(=O)C(C)OC7OC6C(C)O4)c3O)C5=O)OC2C)CCC1=O (centres unmarked) [MH190 Y4, Saquayamycin D] | instable against light, acid and alkali | CHCl3, ethyl acetate, butyl acetate, methanol, acetonitrile, acetone, dimethyl sulfoxide | H2O, hexane, petroleum ether | 0.07 (≈ 0.0851 µM) | 0.06 (≈ 0.0729 µM) | 0.86 |  |  |  |  |  |  |  |  |  |  |
| CC1OC(OC2CCC(OC3(C)CC(=O)C4(O)C5=C(C=CC4(O)C3)C(=O)c3c(ccc(C4CC6OC7CC(=O)C(C)OC7OC6C(C)O4)c3O)C5=O)OC2C)C=CC1=O (centres unmarked) [MH190 Y2, Saquayamycin B] | instable against light, acid and alkali | CHCl3, ethyl acetate, butyl acetate, methanol, acetonitrile, acetone, dimethyl sulfoxide | H2O, hexane, petroleum ether | 0.08 (≈ 0.0975 µM) | 0.067 (≈ 0.0816 µM) | 0.84 | 102 | 127 | 120 | 127 | 151 | 175 | appreciable anti-tumor activities | 6.25 to 12.5 |  |  |
| CC1OC(OC2CCC(OC3(C)CC(=O)C4(O)C5=C(C=CC4(O)C3)C(=O)c3c(ccc(C4CC(O)C(OC6CCC(=O)C(C)O6)C(C)O4)c3O)C5=O)OC2C)CCC1=O (centres unmarked) [MH190 Y3, Saquayamycin C] | instable against light, acid and alkali | CHCl3, ethyl acetate, butyl acetate, methanol, acetonitrile, acetone, dimethyl sulfoxide | H2O, hexane, petroleum ether | 0.072 (≈ 0.0873 µM) | 0.06 (≈ 0.0727 µM) | 0.83 |  |  |  |  |  |  |  |  |  |  |
| COc1cccc2c1C(=O)c1c(O)c3c(c(O)c1C2=O)C[C@@](O)(C(=O)CO)C[C@@H]3O[C@H]1C[C@H](N)[C@H](O)[C@H](C)O1 [Adriamycin, reference compound] |  |  |  | 0.012 (≈ 0.0221 µM) |  | 31.7 |  |  |  |  |  |  |  |  | 0.38 (≈ 0.699 µM) |  |
| CC1OC(OC2C(O)CC(c3ccc4c(c3O)C(=O)C3=C(C4=O)C4(O)C(=O)CC(C)(O)CC4(O)C=C3)OC2C)CCC1=O (centres unmarked) [MH190 Y3-1, Saquayamycin C1] | instable against light, acid and alkali | CHCl3, ethyl acetate, butyl acetate, methanol, acetonitrile acetone, dimethyl sulfoxide | H2O, hexane, petroleum ether |  |  |  |  |  |  |  |  |  |  |  |  |  |
| CC1OC2OC3C(C)OC(c4ccc5c(c4O)C(=O)C4=C(C5=O)C5(O)C(=O)CC(C)(O)CC5(O)C=C4)CC3OC2CC1=O (centres unmarked) [MH190 Y2-1, Saquayamycin B1] | instable against light, acid and alkali | CHCl3, ethyl acetate, butyl acetate, methanol, acetonitrile, acetone, dimethyl sulfoxide | H2O, hexane, petroleum ether | 0.13 (≈ 0.218 µM) | 0.074 (≈ 0.124 µM) | 0.57 |  |  |  |  |  |  |  |  |  |  |
| CC1OC(OC2CCC(OC3(C)CC(=O)C4(O)C5=C(C=CC4(O)C3)C(=O)c3c(ccc(C4CC(O)C(OC6C=CC(=O)C(C)O6)C(C)O4)c3O)C5=O)OC2C)C=CC1=O (centres unmarked) [MH190 Y1, Saquayamycin A] | instable against light, acid and alkali changed to MH190 Y2 on silica gel | CHCl3, ethyl acetate, butyl acetate, methanol, acetonitrile, acetone, dimethyl sulfoxide | H2O, hexane, petroleum ether |  |  | 0.84 |  |  |  |  |  |  |  |  | 0.056 (≈ 0.0682 µM) | 0.067 (≈ 0.0816 µM) |
| CC1OC(OC2C(O)CC(c3ccc4c(c3O)C(=O)C3=C(C4=O)C4(O)C(=O)CC(C)(O)CC4(O)C=C3)OC2C)C=CC1=O (centres unmarked) [MH190 Y1-1, Saquayamycin A1] | instable against light, acid and alkali changed to MH190 Y2 on silica gel | CHCl3, ethyl acetate, butyl acetate, methanol, acetonitrile, acetone, dimethyl sulfoxide | H2O, hexane, petroleum ether | 0.175 (≈ 0.293 µM) | 0.09 (≈ 0.151 µM) | 0.51 |  |  |  |  |  |  |  |  |  |  |

From patent EP0191399A2, “Benz[a]anthraquinone compounds, a microbial process for their preparation and their use as medicaments” (priority 1985, dated 1986)
